Results from patent US7053047B2, “Cyclic pentapeptides and their preparation” (Purzer Pharmaceutical Co., Ltd., priority 2002, dated 2006).
Marks after values point to notes of the source that are not given here.

Columns and labels:
thrombus = assay: Thrombolytic effect in thrombolysis rat model (thrombus on bolt in arteriovenous polyethylene tube); type: in vivo, Wistar rat; settings: for m, thrombus mass reduction: injected in 6 min, bolt weighed after 1 h, n = 8; for thrombolytic effect / potency (comparison in words): thrombolysis rat model, Tables 1 and 2
Protocol: The thrombolytic effect was evaluated by thrombolysis rat model.
0.1 ml Wistar rat blood was poured into a glass tube (length, 15 mm; external diameter, 5.0 mm; internal diameter, 2.5 mm) which was fixed vertically and the bottom was sealed with a rubber stopper. A stainless steel bolt was inserted quickly, the bolt diameter was 0.2 mm and the length was 12 mm. 15 min later, the bolt containing thrombus was taken out from the glass tube and weighed exactly.
Male Wistar rat weighing 220 g–280 g were anesthetized with pentobarbital sodium (80 mg/kg, i.p). The right arteria carotis communis and the left vena jugulars externa were separated. The bolt containing thrombus was put in the polyethylene tube and one end was inserted into the left vena jugulars externa. 50 IU/kg of heparin sodium was injected as anticoagulant, and the other tube end was inserted into the right arteria carotis communis. At this time the blood flowed from the right arteria carotis to the left vena jugulars externa via the polyethylene tube. Then normal saline solution, UK, GP6A (SEQ ID NO: 26), P6A (SEQ ID NO: 25) and KP6A (SEQ ID NO: 27) were injected in 6 min. The bolt was taken out and weighed after 1 h. The data are listed in Table 1 and Table 2, statistical data analysis was carried out by using student's t test, p<0.05 was considered significant.

[1] = tested on: coronary artery and femoral artery blood flow; settings: dogs; cited from earlier work
[2] = tested on: coronary artery thrombosis; assay: Thrombolysis with tissue plasminogene activator in dogs with coronary artery thrombosis; type: in vivo; settings: injected i.v. together with tissue plasminogene activator
Excerpt: Peptide 6A is a degradation of fibrinogen β chain analogue which has been known to increase coronary artery and femoral artery blood flow. In 1978(1), peptide 6A was first isolated and purified from the β chain of human fibrinogen by Belew et al.(2). The composition of peptide 6A was confirmed as Ala-Arg-Pro-Ala-Lys (SEQ ID NO: 25). […] In 1997, the inventors prepared peptide 6A and its analogues by solution method and observed that these peptides have good potency for relaxing vascula, lowering blood pressure and anti-thrombosis. The synthetic techniques and functions of these compounds have been described in CN Patent No. 1146458.

Substance	m, thrombus mass reduction (thrombus; dosage 5 μmol/kg)	m, thrombus mass reduction (thrombus; dosage 10 μmol/kg)	m, thrombus mass reduction (thrombus; dosage 20 μmol/kg)	thrombolytic effect compared with UK (thrombus; high concentration (>10 μmol) versus UK (2000 IU/Kg))	thrombolytic effect / potency (comparison in words) (thrombus)	coronary artery and femoral artery blood flow [1]	parameters of thrombolysis [2]
Cyclo(Gly-Arg-Pro-Ala-Lys) (GRPAK; cyclic; Cyclo GP6A) [CycloGP6A]	8.35 ± 2.76^a mg	17.31 ± 4.29^a mg	18.38 ± 2.08^a,b,c mg	even better than UK	much more thrombolytic potency than the others	–	–
H-Gly-Arg-Pro-Ala-LysOH (GRPAK; GP6A)	9.31 ± 3.94^a mg	13.17 ± 4.13^a mg	16.81 ± 544^a,b mg	–	much more thrombolytic potency than the others	–	–
Cyclo(Lys-Arg-Pro-Ala-Lys) (KRPAK; cyclic; Cyclo KP6A) [CycloKP6A]	6.13 ± 2.31^a mg	–	–	–	–	–	–
Cyclo(Ala-Arg-Pro-Ala-Lys) (ARPAK; cyclic; Cyclo P6A) [CycloP6A]	10.62 ± 3.15^a mg	–	–	–	–	–	–
H-Ala-Arg-Pro-Ala-LysOH (H-ARPAK-OH) [Compound P6A]	6.07 ± 2.14^a mg	–	–	–	–	increases coronary artery and femoral artery blood flow	no additional benefit on the parameters of thrombolysis
H-Lys-Arg-Pro-Ala-LysOH (KRPAK; KP6A)	0.28 ± 2.13 mg	–	–	–	–	–	–
